Measured values reported in patent US20090030086A1, “ANTIMICROBIAL AGENTS” (priority 2005, published 2009).
Values after ≈ are worked out from the molar mass of the structure shown. Where two headings read alike, the source gives them in different places.

How the values were obtained:
[1] = system: S. aureus ATCC 29213; assay: MBC assay; type: cell-based, Staphylococcus aureus
Description: (§1) The staphylococci and enterococci were cultured and maintained on Mueller-Hinton Medium (agar and broth) at pH 7.2; they were incubated aerobically at 37° C. for 24 hours.
(§2) This assay, normally carried out after an MIC assay, determines the minimum concentration of a compound that is lethal to the micro-organism being tested.
(§3) These samples were then individually sub-cultured on non-selective agar medium, under the incubation conditions described above. Following incubation they were examined visually for bacterial growth.
(§4) The following experiments all used S. aureus ATCC 29213 as the test organism. MIC, MBC and DDA assays, as described above, were carried out using a range of different benzoquinones and hydroquinones. Supplemented DDA assays, in the presence of salt, lipid and blood, were also conducted.

[2] = system: S. aureus ATCC 29213; assay: Disc diffusion assay (DDA); type: cell-based, Staphylococcus aureus; conditions: S. aureus ATCC 29213, unsupplemented agar, 200 μg per disc (thymoquinone 50 μg, 2,6-dimethoxy-p-benzoquinone 100 μg); for zone of inhibition at 200 µg/disc: Staphylococcus aureus, ATCC29213, read-out: DDA (diameter of zone of inhibition)
Description: as §1
(§5) A sterile paper disc was impregnated with a sample of the test compound and a minimum of 30 minutes allowed for the solvents to evaporate as far as possible. The disc was then placed on an agar plate onto which the test micro-organism had been inoculated. The plate was then incubated under the conditions described above, following which it was examined visually for signs of bacterial growth. […] The diameter of this zone of “inhibition” was measured using a ProtoCOL™ automated zone sizer (Synbiosis, Cambridge, UK).
(§6) The area of the zone of inhibition was calculated from the measured zone diameter (D) using the formula π(D/2)^2.
(§7) For most DDA assays, 200 μg of each compound was loaded onto each disc.

[3] = system: S. aureus ATCC 29213; assay: Supplemented disc diffusion assay; type: cell-based, Staphylococcus aureus; conditions: S. aureus ATCC 29213, 200 μg per disc (thymoquinone 50 μg, 2,6-dimethoxy-p-benzoquinone 100 μg); for zone of inhibition at 200 µg/disc: Staphylococcus aureus, ATCC29213, 24 h
Description: as §1, §5
(§8) Performance under these conditions can provide a more reliable indication of activity on topical application. For assays conducted using S. aureus strains, the supplements were defibrinated horse blood (5% v/v), lipid (Tween™ 80 at 1% v/v) and sodium chloride (100 mM). For those using Propionibacterium spp. strains, the supplements were lipid (Tween™ 80 at 1% v/v) and sodium chloride (100 mM).
as §4, §7

[4] = system: S. aureus ATCC 29213; assay: MIC assay; type: cell-based, Staphylococcus aureus; conditions: S. aureus ATCC 29213, Mueller-Hinton broth pH 7.2, aerobic, 37° C., 24 hours
Description: 1. Staphylococcus aureus—the principal staphylococcal test micro-organism used in these studies was Staphylococcus aureus ATCC 29213. This strain is the one recommended for QC/QA purposes in Minimum Inhibitory Concentration (MIC) assays by the US Clinical and Laboratory Standards Institute (formerly the NCCLS), an FDA-recognised body.
as §1
(§9) This is a standard international method for quantitatively assessing the antimicrobial activity of a compound in a liquid medium. The method used a 96-well microtitre plate, capable of holding about 200 μl of liquid per well. […] The culture media were as described above for the relevant test organisms.
(§10) The wells were inoculated with a liquid suspension of freshly grown micro-organism and incubated under the conditions described above. After incubation, the microtitre plate was examined visually (with the aid of a light box) for cloudiness in each well, which would indicate microbial growth. The MIC value was recorded as the lowest concentration of test compound required to inhibit microbial growth, i.e., the lowest concentration for which the liquid in the well remained clear.
(§11) The assays were conducted in duplicate and included both negative (culture medium only) and positive (culture medium, diluting solvent and inoculum) controls.
as §4

[5] = system: P. acnes NCTC 737; assay: MIC assay; type: cell-based, Propionibacterium acnes
Description: 2. Propionibacterium spp.—the principal propionibacterial strain used in these studies was Propionibacterium acnes NCTC 737.
(§12) The Propionibacterium spp organisms were cultured and maintained on Wilkins-Chalgren Anaerobe Medium (agar and broth) at pH 6.0; cultures were incubated anaerobically at 37° C. for 72 hours.
as §9, §10, §11
(§13) MIC, MBC and DDA assays, as described above, were carried out using a range of different benzoquinones and hydroquinones. Supplemented DDA assays, in the presence of salt and lipid, were also conducted.

[6] = system: P. acnes NCTC 737; assay: Disc diffusion assay (DDA); type: cell-based, Propionibacterium acnes; conditions: for zone of inhibition at 200 µg/disc: Cutibacterium acnes
Description: as §12, §5, §6, §7

[7] = system: P. acnes NCTC 737; assay: MBC assay; type: cell-based, Propionibacterium acnes
Description: as §12, §2, §3, §13

[8] = system: P. acnes NCTC 737; assay: Supplemented disc diffusion assay; type: cell-based, Propionibacterium acnes; conditions: for zone of inhibition at 200 µg/disc: Cutibacterium acnes, NCTC737, 72 h; for effect of lipid on antimicrobial activity: activity increases in the presence of lipid
Description: as §12, §5, §8, §13, §7

[9] = Staphylococcus aureus, ATCC29213, read-out: MBC
[10] = Tween 80 at 1% v/v, read-out: DDA + lipid
[11] = defibrinated horse blood 5% v/v, read-out: DDA + blood
[12] = sodium chloride 100 mM, read-out: DDA + salt
[13] = Staphylococcus aureus, ATCC29213, read-out: MIC
[14] = Cutibacterium acnes, NCTC737, 72 h, pH 6
[15] = NCTC737, read-out: DDA (diameter of zone of inhibition)
[16] = defibrinated horse blood 5% v/v

| MIC/MBC ratio [1] | MIC [4, 13] | Structure (SMILES) | MBC [1, 9] | zone of inhibition at 200 µg/disc [2] | zone of inhibition at 200 µg/disc [3, 10] | zone of inhibition at 200 µg/disc [3, 11] | zone of inhibition at 200 µg/disc [3, 12] | MIC/MBC ratio ([7]; P. acnes NCTC 737) | DDA (diameter of zone of inhibition) [2] | other results |
| --- | --- | --- | --- | --- | --- | --- | --- | --- | --- | --- |
| 1 | 62.5 µg/mL (≈ 376 µM) | CC(C)(C)c1ccc(O)c(O)c1 [4-t-butylcatechol] | 62.5 µg/mL (≈ 376 µM) | 12 mm | 10.9 mm | 9.65 mm | 13.1 mm | – | – | – |
| – | – | O=C1C(Cl)=C(Cl)C(=O)C(Cl)=C1Cl [tetrachloro-p-benzoquinone] | – | – | – | – | – | 0.5 | – | MIC [5, 14]: 31.2 µg/mL (≈ 127 µM); zone of inhibition at 200 µg/disc [6, 15]: 11.6 mm; MBC ([7]; Cutibacterium acnes, NCTC737): 62.5 µg/mL (≈ 254 µM); zone of inhibition at 200 µg/disc ([8]; read-out: DDA + lipid): 12.7 mm; zone of inhibition at 200 µg/disc ([8]; read-out: DDA + salt): 18.9 mm |
| – | – | O=C1C(F)=C(F)C(=O)C(F)=C1F [tetrafluoro-p-benzoquinone] | – | – | – | – | – | 0.5 | – | activity against P. acnes NCTC 737 (in words) [5]: strongly so; MIC [5, 14]: 125 µg/mL (≈ 694 µM); zone of inhibition at 200 µg/disc [6, 15]: 25.9 mm; MBC ([7]; Cutibacterium acnes, NCTC737): 250 µg/mL (≈ 1390 µM); zone of inhibition at 200 µg/disc ([8]; read-out: DDA + lipid): 30.8 mm; zone of inhibition at 200 µg/disc ([8]; read-out: DDA + salt): 32.4 mm; effect of lipid on antimicrobial activity ([8]; P. acnes NCTC 737): potentiated |
| <0.5 | 125 µg/mL (≈ 806 µM) | O=[N+]([O-])c1ccc(O)c(O)c1 [4-nitrocatechol] | > 250 µg/mL | 18.9 mm | 16.5 mm | 11.8 mm | 19 mm | – | – | – |
| – | – | O=C1C=CC(=O)C=C1 [p-benzoquinone] | – | 29.3 mm | – | – | – | – | – | zone of inhibition at 200 µg/disc ([6]; NCTC737, P. acnes NCTC 737, unsupplemented agar, 200 μg per disc (2,6-dimethoxy-p-benzoquinone 100 μg), read-out: DDA (diameter of zone of inhibition)): 24.9 mm; effect of lipid on antimicrobial activity ([8]; P. acnes NCTC 737): potentiated |
| 1 | – | CC(C)(C)c1cc(O)c(C(C)(C)C)cc1O [2,5-di-t-butyl-p-hydroquinone] | – | – | – | – | – | – | 10.06 mm | MBC [1]: 15.6 µg/mL (≈ 70.2 µM); DDA + lipid ([3]; Tween 80 at 1% v/v): 10.58 mm; DDA + blood [3, 16]: 10.89 mm; DDA + salt ([3]; sodium chloride 100 mM): 11.21 mm; MIC [4]: 15.6 µg/mL (≈ 70.2 µM) |
| 1 | – | Cc1cc(O)ccc1O [2-methyl-p-hydroquinone] | – | – | – | – | – | 0.5 | 25.70 mm | MIC ([5]; P. acnes NCTC 737, Wilkins-Chalgren broth pH 6.0, anaerobic, 37° C., 72 hours): 62.5 µg/mL (≈ 503 µM); DDA (diameter of zone of inhibition) ([6]; P. acnes NCTC 737, unsupplemented agar, 200 μg per disc (2,6-dimethoxy-p-benzoquinone 100 μg)): 0.0 mm; MBC ([7]; P. acnes NCTC 737): 125 µg/mL (≈ 1010 µM); DDA + lipid ([8]; P. acnes NCTC 737, Tween 80 at 1% v/v, 200 μg per disc (2,6-dimethoxy-p-benzoquinone 100 μg)): 13.07 mm; DDA + salt ([8]; P. acnes NCTC 737, sodium chloride 100 mM, 200 μg per disc (2,6-dimethoxy-p-benzoquinone 100 μg)): 0.0 mm |
| 1 | 62.5 µg/mL (≈ 503 µM) | Cc1cccc(O)c1O [3-methylcatechol] | 62.5 µg/mL (≈ 503 µM) | 19.8 mm | 18.7 mm | 0 mm | 20.2 mm | – | – | – |

| Structure (SMILES) | MIC/MBC ratio [1] | MIC [4, 13] | MBC [1, 9] | zone of inhibition at 200 µg/disc [2] | zone of inhibition at 200 µg/disc [3, 10] | zone of inhibition at 200 µg/disc [3, 11] | zone of inhibition at 200 µg/disc [3, 12] | MIC/MBC ratio ([7]; P. acnes NCTC 737) | DDA (diameter of zone of inhibition) [2] | other results |
| --- | --- | --- | --- | --- | --- | --- | --- | --- | --- | --- |
| Oc1ccc(O)c(Cl)c1 [2-chloro-p-hydroquinone] | 1 | – | – | – | – | – | – | – | 17.54 mm | MBC [1]: 7.8 µg/mL (≈ 54 µM); DDA + lipid ([3]; Tween 80 at 1% v/v): 16.81 mm; DDA + blood [3, 16]: 13.70 mm; DDA + salt ([3]; sodium chloride 100 mM): 19.30 mm; MIC [4]: 7.8 µg/mL (≈ 54 µM) |
